Data published in PubChem BioAssay (NCI).
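Results reflect a 48-hour exposure of cells in 96-well plates to compound at five concentrations. GI50 is the concentration that inhibits growth by half. The concentration for full growth arrest is given as TGI.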

Tests used:
Assay in all cases: inhibition of tumour cell growth, NCI panel, 48 h
[1] = tested on: SF-295 CNS
[2] = tested on: EKVX NSCLC
[3] = tested on: NCI-H226 lung
[4] = tested on: K-562 leukemia
[5] = tested on: A498 renal
[6] = tested on: IGROV1 ovarian
[7] = tested on: UACC-257 melanoma
[8] = tested on: SK-OV-3 ovarian
[9] = tested on: CAKI-1 renal
[10] = tested on: MOLT-4 leukemia
[11] = tested on: HOP-92 NSCLC
[12] = tested on: NCI-H23 lung
[13] = tested on: PC-3 prostate
[14] = tested on: HS 578T breast
[15] = tested on: COLO 205 colon
[16] = tested on: RXF 393 renal
[17] = tested on: M14 melanoma
[18] = tested on: A549 NSCLC
[19] = tested on: OVCAR-3 ovarian
[20] = tested on: MDA-MB-435
[21] = tested on: MDA-MB-231 breast
[22] = tested on: UACC-62 melanoma
[23] = tested on: LOX IMVI melanoma
[24] = tested on: SK-MEL-2 melanoma
[25] = tested on: DU-145 prostate
[26] = tested on: NCI-H522 lung
[27] = tested on: U251 CNS
[28] = tested on: OVCAR-8 ovarian
[29] = tested on: HCC-2998 colon
[30] = tested on: SW-620 colon
[31] = tested on: NCI-H460 lung
[32] = tested on: SN12C renal
[33] = tested on: OVCAR-5 ovarian
[34] = tested on: HL-60(TB) leukemia
[35] = tested on: SNB-75 CNS
[36] = tested on: KM12 colon
[37] = tested on: SK-MEL-28 melanoma
[38] = tested on: OVCAR-4 ovarian
[39] = tested on: SF-268 CNS
[40] = tested on: SR leukemia
[41] = tested on: T-47D breast
[42] = tested on: BT-549 breast
[43] = tested on: SK-MEL-5 melanoma
[44] = tested on: 786-0 renal
[45] = tested on: TK-10 renal
[46] = tested on: NCI/ADR-RES ovarian
[47] = tested on: SF-539 CNS
[48] = tested on: MALME-3M melanoma
[49] = tested on: RPMI-8226 leukemia
[50] = tested on: HCT-15 colon
[51] = tested on: UO-31 renal
[52] = tested on: SNB-19 CNS
[53] = tested on: MCF7 breast
[54] = tested on: HCT-116 colon
[55] = tested on: ACHN renal
[56] = tested on: CCRF-CEM leukemia
[57] = tested on: HT29 colon
[58] = tested on: HOP-62 NSCLC

CN(C)CCCOc1c2ccc(Cl)cc2nc2c1oc1ccc(Cl)cc12
GI50 [1]: 2.12 µM | TGI [1]: 6.44 µM | GI50 [2]: 2.46 µM | TGI [2]: 7.3 µM | GI50 [3]: 1.99 µM | TGI [3]: 8.13 µM | GI50 [4]: 1.05 µM | TGI [4]: 5.07 µM | GI50 [5]: 6.44 µM | TGI [5]: 27.7 µM | GI50 [6]: 2.34 µM | TGI [6]: 12.5 µM | GI50 [7]: 3.71 µM | TGI [7]: 9.21 µM | GI50 [8]: 3.79 µM | TGI [8]: 15 µM | GI50 [9]: 1.39 µM | TGI [9]: 5.96 µM | GI50 [10]: 1.23 µM | TGI [10]: 6.58 µM | GI50 [11]: 1.08 µM | TGI [11]: 12.9 µM | GI50 [12]: 3.43 µM | TGI [12]: 15.6 µM | GI50 [13]: 1.69 µM | TGI [13]: 9.2 µM | GI50 [14]: 1.98 µM | TGI [14]: 9.43 µM | GI50 [15]: 1.33 µM | TGI [15]: 7.87 µM | GI50 [16]: 1.8 µM | TGI [16]: 4.88 µM | GI50 [17]: 3.15 µM | TGI [17]: 9.37 µM | GI50 [18]: 2.73 µM | TGI [18]: 11.8 µM | GI50 [19]: 2.43 µM | TGI [19]: 7.57 µM | GI50 [20]: 2.17 µM | TGI [20]: 6.39 µM | GI50 [21]: 1.92 µM | TGI [21]: 6.5 µM | GI50 [22]: 4.85 µM | TGI [22]: 10.1 µM | GI50 [23]: 0.857 µM | TGI [23]: 3.56 µM | GI50 [24]: 4.66 µM | TGI [24]: 12.4 µM | GI50 [25]: 4.21 µM | TGI [25]: 14.4 µM | GI50 [26]: 4.33 µM | TGI [26]: 23.5 µM | GI50 [27]: 3.23 µM | TGI [27]: 12.9 µM | GI50 [28]: 1.49 µM | TGI [28]: 6.04 µM | GI50 [29]: 4.18 µM | TGI [29]: 15.5 µM | GI50 [30]: 0.9 µM | TGI [30]: 4.36 µM | GI50 [31]: 1.08 µM | TGI [31]: 3.92 µM | GI50 [32]: 1.46 µM | TGI [32]: 5.55 µM | GI50 [33]: 2.46 µM | TGI [33]: 6.76 µM | GI50 [34]: 2.95 µM | TGI [34]: 15.7 µM | GI50 [35]: 1.41 µM | TGI [35]: 6.65 µM | GI50 [36]: 2.22 µM | TGI [36]: 7.52 µM | GI50 [37]: 5.09 µM | TGI [37]: 9.67 µM | GI50 [38]: 2.1 µM | TGI [38]: 6.4 µM | GI50 [39]: 4.85 µM | TGI [39]: 21.8 µM | GI50 [40]: 1.18 µM | TGI [40]: 5.33 µM | GI50 [41]: 12.7 µM | TGI [41]: > 59.1 µM | GI50 [42]: 7.26 µM | TGI [42]: > 30.5 µM | GI50 [43]: 4.48 µM | TGI [43]: 8.96 µM | GI50 [44]: 4.12 µM | TGI [44]: 16.1 µM | GI50 [45]: 6.62 µM | TGI [45]: 21.1 µM | GI50 [46]: 3.72 µM | TGI [46]: 17.7 µM | GI50 [47]: 3.37 µM | TGI [47]: 13.8 µM | GI50 [48]: 3.24 µM | TGI [48]: 16.2 µM | GI50 [49]: 1.97 µM | GI50 [50]: 1.35 µM | TGI [50]: 5.41 µM | GI50 [51]: 1.35 µM | TGI [51]: 11.7 µM | GI50 [52]: 1.89 µM | TGI [52]: 6.61 µM | GI50 [53]: 1.24 µM | TGI [53]: 4.9 µM | GI50 [54]: 3.73 µM | TGI [54]: 23.6 µM | GI50 [55]: 2.51 µM | TGI [55]: 13.2 µM | GI50 [56]: 2.18 µM | TGI [56]: 14.1 µM | GI50 [57]: 1.22 µM | TGI [57]: 5.15 µM | GI50 [58]: 3.21 µM | TGI [58]: 22 µM
